What was measured:
LN cells [1] = test: Migration and invasion analysis, LN cells; type: cell-based, human; conditions: 1 and 20 μM for 24 and 48 hours, FIG. 7
Text: (§1) The LN cell line was established by orthotopically injected 5×10^5 PANC-1 cells to the pancreas of SCID mice. After one month, mestastasis was found in lymph nodes, cancerous cells were then isolated from lymph nodes. The genomic DNA of the isolated cancer cells from lymph nodes were extracted and sent for genotyping analysis, which confirmed that LN cells were indeed derived from PANC-1 cells (data not shown).
(§2) Migration assays were done using a transwell, in which a polycarbonate filter pre-coated with Matrigel (8-μm pores, Millicell; Millipore, Billerica, Mass.) was inserted therein. Cells were serum-starved for 24 h and then seeded (5×10^5 cells per upper chamber) and treated with or without the present compound(s) (concentrations as indicated), and the assays were run for 6 h. Cells that had migrated to the underside of the inserted filter were stained with hematoxylin solution. The cells in the upper side of the inserted membrane were rubbed with a cotton swab. The migrated cells on the underside were pictured in a 200× magnification field and quantified.
(§3) In this example, the ability of the FCW551 in suppressing the migration and/or invasion of pancreatic cancer cells was investigated. Briefly, PANC-1 and LN cells were respectively treated with 1 and 20 μM FCW551 for 24 and 48 hours before subjecting to the migration and invasion analysis. Results are illustrated in FIG. 7.

PANC-1 cells [2] = test: MTT assay cytotoxicity, PANC-1 cells; type: cell-based, human; conditions: 1, 5, 10, 25 and 50 μM for 24 and 48 hours, FIG. 6
Protocol: (§4) The absorbance of the solution at 570 nm was measured by spectrophotometer.
(§5) The cytotoxicity of FCW551 on PANC-1 and LN cells were determined by MTT assay in according to procedures described in the “Materials and Methods” section.

PANC-1 cells [3] = test: Migration and invasion analysis, PANC-1 cells; type: cell-based, human; conditions: 1 and 20 μM for 24 and 48 hours, FIG. 7
Protocol: as §2, §3

LN cells [4] = test: MTT assay cytotoxicity, LN cells; type: cell-based, human; conditions: 1, 5, 10, 25 and 50 μM for 24 and 48 hours, FIG. 6
Protocol: as §1, §4, §5

C[C@H](CCC(=O)NCCOCCOCCN=[N+]=[N-])C1CCC2C3CC[C@@H]4C[C@H](NC(=O)[C@H](CC(=O)O)Nc5ccc([N+](=O)[O-])c6nonc56)CC[C@]4(C)C3CC[C@@]21C (stereo partly drawn) [Compound 17, (3S)-4-(((3R,5R,10S,13R)-17-((R)-5-((2-(2-(2-azidoethoxy)ethoxy)ethyl)amino)-5-oxopentan-2-yl)-10,13-dimethylhexadecahydro-1H-cyclopenta[a]phenanthren-3-yl)amino)-3-((7-nitrobenzo[c][1,2,5]oxadiazol-4-yl)amino)-4-oxobutanoic acid]
invasion ability (LN cells [1]): greatly suppressed
migration ability (LN cells [1]): greatly suppressed
melting point: 90 to 91 °C
cytotoxicity (PANC-1 cells [2]): no significant cytotoxicity
invasion ability (PANC-1 cells [3]): greatly suppressed
migration ability (PANC-1 cells [3]): greatly suppressed
cytotoxicity (LN cells [4]): no significant cytotoxicity
